Source: patent US8013144B2, “hnRNP K expression-inhibiting compound and siRNA sequence thereof” (Chang Gung University, priority 2009, dated 2011)

Tested on: NPC-TW02 and NPC-TW02/TP
Experiment: cytotoxicity assay with 5′-DFUR, apoptosis assay (annexin V)
Format: cell-based
Settings: TP over-expression, 72 hours
Protocol: Refer to FIG. 1A and FIG. 1B. A cell line of nasopharyngeal cancer NPC-TW02/TP is established to stably express exogenous TP. First, the TP-expression carrier pcDNA3.1-PT is transfected to the cell line. Next, the cell line is screened and then cultivated in a culture solution having 500 μg/ml G418. Next is performed a cytotoxicity assay, wherein NPC-TW02 and NPC-TW02/TP are respectively processed with 5′-DFUR (a product of Sigma-Aldrich, St. Louis, Mo., USA). Next, the cell lines are further cultivated for 72 hours. Next, the cell membranes are everted to expose phosphatidylserine. Then, phosphatidylserine is analyzed with the Vybrant® Apoptosis Assay Kit #2 (a product of Invitrogen).
Firstly, 2×10^5 cells are taken out and washed with PBS. Next, a buffer solution (10 mM HEPES, 140 mM NaCl, 2.5 mM CaCl2, pH 7.4) is used to adjust the solution to have a cell concentration of 2×10^6/mL. Next, 5 μl Alexa Fluor® 488 annexin V is added into […], and then the cell suspension reacts at an ambient temperature for 15 minutes. Next, the cell specimens (10000 events) are analyzed with a flow cytometer (a product of Becton Dickinson), as shown in FIG. 3. […] Then, phosphatidylserine is analyzed with the Vybrant® Apoptosis Assay Kit #2 (a product of Invitrogen).

In the case of C[C@H]1O[C@@H](n2cc(F)c(=O)[nH]c2=O)[C@H](O)[C@@H]1O [5′-DFUR, 5-fluoro-5′-deoxyuridine], the “sensitivity of nasopharyngeal cancer cells to 5′-DFUR (apoptosis)” value is reported as “more sensitive”.
